Assay results reported in PMC9589286, “Ruthenium polypyridine complexes with triphenylamine groups as antibacterial agents against Staphylococcus aureus with membrane-disruptive mechanism” (Frontiers in Chemistry, 2022).

Columns and labels:
[1] = system: Staphylococcus aureus; test: MBC determined by LB plates; assay type: cell-based; conditions: S. aureus, 24 h
Procedure: Antibacterial activity was evaluated by measuring MIC (minimum inhibitory concentration) and MBC (minimum bactericidal concentration) values. The MIC value was measured by the microdilution method using TSB broth with 96 well plates ([Carlsen et al., 1981]) and the MBC value was determined by LB plates. In brief, the overnight cultured bacteria were 1: 1000 diluted with fresh medium to get a bacterial suspension. After incubation at 37°C for 20 h, the growth of bacteria is monitored by observing the turbidity of the culture. The bacterial solution was diluted as above method and the complexes were incubated with bacterial solution for 2 h. Then 100 μL bacterial solution was taken for plate coating. The Staphylococcus aureus growth inhibition trend in the presence of complexes was obtained. The MBC values of complexes were determined by LB plates after culturing in the same method for 24 h. All experiments were controlled with sterile water and repeated in parallel at least three times.

[2] = Partition coefficient, shake flask 1-octanol/PBS; assay type: physicochemical
Procedure: The partition coefficients of all complexes were determined by standard shake flask method in 1-octanol and buffer liquid system ([Yang et al., 2021]). In brief, the octanol/water partition coefficient is obtained by the incubation of 2 ml of 25 μg ml^−1 ruthenium complex 1-octanol and 2 ml PBS samples. After shaking the solution for 6 h, the samples were stood for 2 h. The absorbance of octanol complex at 282 nm before and after oscillation was measured. The absorbance of 1-octanol before oscillation minus the absorbance of 1-octanol after oscillation is the absorbance of the complex in water. Each experiment was repeated three times. The partition coefficient is reported as the number of octanol divided by the number of water.

[3] = system: Staphylococcus aureus biofilm; test: Biofilm formation, crystal violet staining; assay type: cell-based
Procedure: 24 well plate was used for biofilm determination. The overnight cultured Staphylococcus aureus strain was diluted 1000 times with fresh TSB medium. Then 2 ml of that diluted bacterial solution was mixed with 500 µL Ru-3 of different concentrations in a 24 well plate. After incubation at 37°C for 48 h, the bacterial suspension was removed and the plate was washed three times with PBS. The adherent bacteria were dried overnight at 37°C and then dyed through 0.1% crystal violet solution. After 2 min, taking out the crystal violet solution and wash the plate with PBS again. And then, adding 1 ml acetic acid and 1 ml water, the formation of biofilm can be determined by monitoring the absorbance at 595 nm.

[4] = system: Staphylococcus aureus; test: Drug resistance study, 20 generations at sub inhibitory concentration; assay type: cell-based
Procedure: After Staphylococcus aureus was cultured for 5 h, the bacteria were diluted 1000 times with fresh TSB and the MIC of Ru-3 was measured. The bacterial solution grown at the sub inhibitory concentration of compound Ru-3 was inoculated into fresh TSB medium for 5 h, then the MIC was measured, and the above procedure was repeated for 20 generations. Ampicillin was used as the control.

[5] = system: Galleria mellonella; test: Toxicity in insect model Galleria mellonella; assay type: in vivo; conditions: 64 mg kg^−1, larvae, 120 h
Procedure: Based on the excellent antibacterial effect of Ru-3 in vitro, its biosafety was further evaluated. Firstly, the hemolytic activity of ruthenium complexes on rabbit red blood cells was measured to study their toxicity. […] In view of its good compatibility with mammalian red blood cells, the toxicity of Ru-3 to eukaryotes was also studied. Herein, Ru-3 was tested with Gallery melonella larvae. […] When the concentration of Ru-3 was 64 mg kg^−1, the survival rate was still 75%.
FIGURE 15 Test results of Ru compounds toxicity (A) % hemolysis at 256 μg ml^−1 of Ru compounds. (B) Kaplan-Meier survival curves. […] The larvae were incubated at 37.5°C and live/dead scores were conducted at 120 h (C) H&E staining images of the infected tissues with different treatments.

[6] = system: Staphylococcus aureus; test: In vivo antibacterial activity, mouse skin infection model; design: species or system mice; conditions: cream with 50 μg ml^−1, 4 times a day, after 4 days
Procedure: S. aureus was cultured in TSB medium to exponential phase. Bacterial precipitates were collected and washed with PBS three times by centrifugation, which was diluted to OD600 = 1 (1.02 × 10^8 CFU/ml) with sterile normal saline. The day before the infection, the hair on the back of the mice was shaved off. Then depilatory cream (Veet®) was used to remove the remaining hair. Subsequently, 100 μL S. aureus was injected in subcutaneous and the abscess formed after 12 h later. All mice infected with S. aureus were divided into two groups (n = 5 in each group), including control group and treatment group, Ru-3 (0.05 mg ml^−1), which was fully mixed in sterile cream. Afterwards, mouse abscesses were treated with creams containing Ru-3 4 times a day. After 10 days, the experiment was ended. The study was conducted in strict accordance with NIH guidelines for the care and use of laboratory animals (NIH Publication No. 85–23, revised in 1985), and was reviewed and approved by the institutional animal care and use Committee of Guangxi Normal University (Guilin, China).

[7] = system: Staphylococcus aureus; test: Membrane permeability, ONPG hydrolysis; assay type: cell-based; conditions: Ru-3 2 or 4 μg/ml vs vancomycin 2 μg/ml
Procedure: O-nitrobenzene-β-D-galactopyranoside (ONPG) was the substrate of intracellular ß-galactosidase, that was used to determine the permeability of Staphylococcus aureus cell membrane. Staphylococcus aureus was cultured to logarithmic phase, then washed and cultured in M9 lactose medium, in which lactose was used as the only carbon source of a single colony and stayed overnight at 37°C. After washing three times with PBS, the culture was diluted to OD600 = 0.3 (PBS). […] The hydrolysis of ONPG to o-nitrophenol over time was monitored by UV every 15 min at 415 nm. A similar procedure was used for untreated cells as control ([Xuan et al., 2021]).

[8] = system: Staphylococcus aureus; test: DiSC3(5) and DAPI/PI fluorescence staining; assay type: cell-based; conditions: 4 μg ml^−1, 2 h
Procedure: Firstly, S. aureus was cultured in TSB medium to exponential phase. Exponential growth bacteria were collected by centrifugation at 5000 rpm for 2 min, then washed with PBS and diluted to OD600 value of 0.3. Secondly, Ru-3 (4 μg ml^−1) was added to the bacterial suspension solution and incubated at 37°C for 2 h, then the supernatant was removed by centrifuging. Thirdly, the bacterial was washed with PBS for three times and suspendedin 500 μL PBS. Subsequently, adding 20 μL DiSC3(5) (30 μM), incubating for 1 h under dark conditions. For DAPI and PI, adding 20 μL DAPI (10 μg ml^−1), incubating for 15 min under dark conditions. Next, adding 20 μL PI (15 μg ml^−1) in the same tube, and incubating for 15 min under dark conditions. After that, centrifuge, removing the supernatant. Eventually, suspending with 500 uL PBS and 20 μL samples were transfered on glass slides and observed under fluorescent cell imager.

[Ru(dmb)2PMA] (PF6)2 [Ru-3]
MBC [1]: 32 mg/L | LgP [2]: 1.79 | logD o/w [2]: ca. 1.7885 | biofilm formation reduced by ([3]; 1 μg ml^−1, 48 h): 27% | Nomalized Biofilm formation ([3]; 1 μg/mL): 73% | biofilm formation reduced by ([3]; 2 μg ml^−1, 48 h): 41% | Nomalized Biofilm formation ([3]; 2 μg/mL): 59% | increase of MIC value after 20 generations ([4]; 20 passages at sublethal concentration): four | MIC values against antibiotic resistant S. aureus ([4]; ampicillin, polymyxin B, tetracycline, clindamycin resistant S. aureus obtained after 20 generations): almost the same as the wild type | survival rate [5]: 75% | degree of wound healing [6]: increased significantly | plasma membrane permeability (ONPG) [7]: better membrane permeability | DAPI/PI fluorescence [8]: blue and red fluorescence | membrane depolarization, DiSC3(5) fluorescence [8]: strong green fluorescence
